The source of these data is patent US9040573B2, “Anti-fungal agent” (Nihon Nohyaku Co., Ltd., priority 2011, dated 2015).

Assay [1] has as its system Scytalidium hyalinum. Briefly: Antifungal Activity Test 2: MIC by broth microdilution method (Alamar Blue). In kind it is cell-based. As for the experimental part:
(§1) The minimum inhibitory concentration (MIC) was measured by a broth microdilution method. That is, RPMI1640 medium (Sigma-Aldrich) was buffered with 0.165 M morpholine propanesulfonic acid (MOPS, Wako Pure Chemical Industries, Ltd.) to pH 7.0, and a given amount of a solution of the drug in DMSO was added thereto to prepare 2-fold dilution series within the range of 0.00098-4 μg/mL. This was added to a 96-well microplate by 100 μL, a fungal inoculum solution (100 μL, final concentration of fungi to be added: 1.0×10^4 cells/mL) was added, and the mixture was cultured at 35° C. An Alamar Blue reagent was added in advance to the culture medium (final addition concentration: 10%) and, at the time point when the Alamar Blue reagent in the drug-free growth control group changed from blue to red, the culture was discontinued and the absorbance (differential optical density at 570 nm based on 590 nm served as reference) measured. The minimum concentration of the drug that inhibited the growth of the fungus in the growth control group by 80% or more was taken as MIC. The concentration to be MIC (MIC90) in 9 strains out of the 10 strains (90%) measured was determined.
Scytalidium hyalinum strain of clinical isolate available from CBS (Netherlands) was used. The fungus was pre-cultured in an SDA medium, 0.1% (w/v) Tween 80-containing sterile saline was added to give a suspension, which was filtered through gauze to collect arthrospore. This was suspended in 0.1% (w/v) Tween 80-containing sterile saline, and added to a 20% Alamar Blue-containing medium to 2×10^4 cells/mL to give a fungal inoculum solution.
(§2) Each drug was used after dissolving in DMSO (dimethyl sulfoxide).
The test method was the same as in the aforementioned antifungal activity test 1, and the minimum concentration of the drug that inhibited the growth of the fungus in the growth control group by 80% or more was taken as MIC. The MIC range of the 4 strains measured and the geometric mean (GM) of each drug were determined.
A general note: In broth dilution the organism is exposed to a series of concentrations in liquid medium.

The subject of assay [2] is Scytalidium dimidiatum. Briefly: Antifungal Activity Test 1: MIC by broth microdilution method (Alamar Blue). The assay is classed as cell-based. The conditions noted are these: for MIC: growth inhibited by 80% or more; for MIC90: concentration to be MIC in 9 strains out of the 10 strains (90%).
Text: Scytalidium dimidiatum strain of clinical isolate obtained by separation and identification from nail or stratum corneum of patients with superficial mycosis was used. The fungi pre-cultured on an SDA medium was suspended in 0.1% (w/v) Tween 80-containing sterile saline and the suspension was filtered through gauze to collect arthrospore. This was suspended in 0.1% (w/v) Tween 80-containing sterile saline, and added to a 20% Alamar Blue-containing medium to 2×10^4 cells/mL to give a fungal inoculum solution.
as §2, §1
Reference documents for measurement method: Takako Shinoda et al.: opinion proposed by Committee for Clinical Laboratory Standards of The Japanese Society for Medical Mycology (1995-1997), Method for antifungal susceptibility testing of filamentous fungus, Medical Mycology Journal, 40: 239-257, 1999. Clinical Laboratory Standards Institute/National Committee for Clinical Laboratory Standards. Reference method for broth dilution antifungal susceptibility testing of filamentous fungus. Approved Standard M38-A2. Wayne, Pa.: National Committee for Clinical Laboratory Standards, 2008. Test Results

Where [3] appears, read: Neoscytalidium hyalinum, clinical isolate CBS200.88, growth inhibited by 80% or more, read-out: MIC.
Where [4] appears, read: Neoscytalidium hyalinum, clinical isolate CBS545.95, growth inhibited by 80% or more, read-out: MIC.
Where [5] appears, read: Neoscytalidium hyalinum, clinical isolate CBS601.85, growth inhibited by 80% or more, read-out: MIC.
Setting [6] is: Neoscytalidium hyalinum, clinical isolate CBS619.84, growth inhibited by 80% or more, read-out: MIC.
[7] abbreviates: Neoscytalidium hyalinum, geometric mean of the 4 strains measured, read-out: GM (geometric mean of MIC).
[8] abbreviates: Neoscytalidium hyalinum, range of the 4 strains measured, read-out: MIC range.
The mark [9] stands for this setting: Neoscytalidium dimidiatum, clinical isolate 530129, read-out: MIC.
Setting [10] is: Neoscytalidium dimidiatum, clinical isolate 530142, read-out: MIC.
The mark [11] stands for this setting: Neoscytalidium dimidiatum, clinical isolate 530251, read-out: MIC.
[12] abbreviates: Neoscytalidium dimidiatum, clinical isolate 530621, read-out: MIC.
The mark [13] stands for this setting: Neoscytalidium dimidiatum, clinical isolate 530633, read-out: MIC.
The mark [14] stands for this setting: Neoscytalidium dimidiatum, clinical isolate 530914, read-out: MIC.
Setting [15] is: Neoscytalidium dimidiatum, clinical isolate 530946, read-out: MIC.
Setting [16] is: Neoscytalidium dimidiatum, clinical isolate 530999, read-out: MIC.
Where [17] appears, read: Neoscytalidium dimidiatum, clinical isolate 531581, read-out: MIC.
Where [18] appears, read: Neoscytalidium dimidiatum, clinical isolate 531869, read-out: MIC.
Where [19] appears, read: Neoscytalidium dimidiatum, read-out: MIC90.

By MIC is commonly meant the lowest concentration that inhibits growth of the organism. In general, MIC90 refers to an inhibitory concentration at the 90% level, which refers to growth in some studies and to a panel of isolates in others.

Values after ≈ are worked out from the molar mass of the structure shown. Like-named read-outs stand apart in the source and are kept apart here.

As for `Clc1ccc(COC(Cn2ccnc2)c2ccc(Cl)cc2Cl)c(Cl)c1` (stereo not drawn) [MCZ, miconazole], the MIC is 0.5 µg/mL (≈ 1.2 µM) in assay [1] (setting [3]); 0.5 µg/mL (≈ 1.2 µM) in assay [1] (setting [4]); 0.063 µg/mL (≈ 0.151 µM) in assay [1] (setting [5]); 0.5 µg/mL (≈ 1.2 µM) in assay [1] (setting [6]); 0.3 µg/mL (≈ 0.721 µM) in assay [1] (setting [7]); 0.063 to 0.5 µg/mL (≈ 0.151 to 1.2 µM) in assay [1] (setting [8]). The MIC was 1 µg/mL (≈ 2.4 µM) in assay [2] (setting [9]); 1 µg/mL (≈ 2.4 µM) in assay [2] (setting [10]); 1 µg/mL (≈ 2.4 µM) in assay [2] (setting [11]); 1 µg/mL (≈ 2.4 µM) in assay [2] (setting [12]); 0.5 µg/mL (≈ 1.2 µM) in assay [2] (setting [13]); 1 µg/mL (≈ 2.4 µM) in assay [2] (setting [14]). In addition, the MIC in assay [2] (setting [15]) stood at 1 µg/mL (≈ 2.4 µM); in assay [2] (setting [16]), 0.5 µg/mL (≈ 1.2 µM); in assay [2] (setting [17]), 0.5 µg/mL (≈ 1.2 µM); in assay [2] (setting [18]), 0.5 µg/mL (≈ 1.2 µM). Besides, the MIC90 in assay [2] (setting [19]) was found to be 1 µg/mL (≈ 2.4 µM).
For `c1ccc(-c2ccc(C(c3ccccc3)n3ccnc3)cc2)cc1` (stereo not drawn) [BFZ, bifonazole], the MIC in assay [1] (setting [3]) is 0.063 µg/mL (≈ 0.203 µM); in assay [1] (setting [4]), 0.063 µg/mL (≈ 0.203 µM); in assay [1] (setting [5]), 0.031 µg/mL (≈ 0.0999 µM); in assay [1] (setting [6]) it was 0.13 µg/mL (≈ 0.419 µM); in assay [1] (setting [7]), 0.063 µg/mL (≈ 0.203 µM); in assay [1] (setting [8]), 0.031 to 0.13 µg/mL (≈ 0.0999 to 0.419 µM). The MIC in assay [2] (setting [9]) is 0.25 µg/mL (≈ 0.805 µM); in assay [2] (setting [10]), 0.13 µg/mL (≈ 0.419 µM); in assay [2] (setting [11]), 0.25 µg/mL (≈ 0.805 µM); in assay [2] (setting [12]), 0.25 µg/mL (≈ 0.805 µM); in assay [2] (setting [13]) it was 0.13 µg/mL (≈ 0.419 µM); in assay [2] (setting [14]) it was 0.13 µg/mL (≈ 0.419 µM). Moreover, the minimum inhibitory concentration (MIC) in assay [2] (setting [15]) worked out at 0.25 µg/mL (≈ 0.805 µM); in assay [2] (setting [16]), 0.13 µg/mL (≈ 0.419 µM); in assay [2] (setting [17]), 0.25 µg/mL (≈ 0.805 µM); in assay [2] (setting [18]), 0.13 µg/mL (≈ 0.419 µM). In assay [2] (setting [19]), the MIC90 amounted to 0.25 µg/mL (≈ 0.805 µM).
As to `C[C@@H]1[C@H](O)[C@@H](C)/C=C/C=C/C=C/C=C/C=C/C=C/C=C/[C@H](O[C@@H]2O[C@H](C)[C@@H](O)[C@H](N)[C@@H]2O)C[C@@H]2O[C@](O)(C[C@@H](O)C[C@@H](O)[C@H](O)CC[C@@H](O)C[C@@H](O)CC(=O)O[C@H]1C)C[C@H](O)[C@H]2C(=O)O` [AMPB, amphotericin B], the MIC in assay [1] (clinical isolate CBS200.88, growth inhibited by 80% or more) was determined as 0.5 µg/mL (≈ 0.541 µM); in assay [1] (clinical isolate CBS545.95, growth inhibited by 80% or more), 1 µg/mL (≈ 1.08 µM); in assay [1] (clinical isolate CBS601.85, growth inhibited by 80% or more), 0.5 µg/mL (≈ 0.541 µM); in assay [1] (clinical isolate CBS619.84, growth inhibited by 80% or more), 0.5 µg/mL (≈ 0.541 µM); in assay [2] (clinical isolate 530129), 0.25 µg/mL (≈ 0.271 µM); in assay [2] (clinical isolate 530142), 0.13 µg/mL (≈ 0.141 µM). In addition, the MIC came to 0.25 µg/mL (≈ 0.271 µM) in assay [2] (clinical isolate 530251); 0.25 µg/mL (≈ 0.271 µM) in assay [2] (clinical isolate 530621); 0.25 µg/mL (≈ 0.271 µM) in assay [2] (clinical isolate 530633); 0.13 µg/mL (≈ 0.141 µM) in assay [2] (clinical isolate 530914); 0.25 µg/mL (≈ 0.271 µM) in assay [2] (clinical isolate 530946); 0.5 µg/mL (≈ 0.541 µM) in assay [2] (clinical isolate 530999). Also, the MIC in assay [2] (clinical isolate 531581) and in assay [2] (clinical isolate 531869) was 0.25 µg/mL (≈ 0.271 µM) each time. Further, the “GM (geometric mean of MIC)” value in assay [1] (geometric mean of the 4 strains measured) is 0.59 µg/mL. Moreover, in assay [1] (range of the 4 strains measured), the MIC range fell in the range of 0.5 to 1 µg/mL. Also, the MIC90 in assay [2] worked out at 0.25 µg/mL (≈ 0.271 µM).
